Results from patent publication US20260022142A1, “MACROCYCLIC IMMUNOMODULATORS” (Bristol-Myers Squibb Company, priority 2022, published 2026).
Numbered stars: 1 amine (or outer) side, 2 acyl side, 3 side chain; on linkers, the order of the positions; unused ones are H or OH. Bridge positions count the residues as written; N and C are the ends. Square brackets hold non-standard residues; d marks the D form. Peptide text beside a SMILES is read from it. * marks the point of attachment. ξ: configuration not given here. Bip = N[C@@H](Cc1ccc(-c2ccccc2)cc1)C(=O)O; γGlu = O=C(O)[C@H](CCC(=O)[*:2])N[*:1]; Cha = N[C@@H](CC1CCCCC1)C(=O)O; Thr(3ξ) = CC(O)[C@H](N)C(=O)O; Carboxymethyl = O=C(O)C*; Orn = NCCC[C@H](N)C(=O)O; Aun = NCCCCCCCCCCC(=O)O; Dab = NCC[C@H](N)C(=O)O; Dap = NC[C@H](N)C(=O)O; AEEA = NCCOCCOCC(=O)O

The molecules below were run against T1, PD-1/PD-L1 interaction (PE-labeled human PD-L1-Ig binding to Jurkat cell line over-expressing human PD-1) (Homo sapiens, UniProt Q15116) (assay: Jurkat-PD-1 Cell Binding High-Content Screening Assay (CBA)). Details: Jurkat cell line over-expressing human PD-1; PE-labeled PD-L1-Ig 20 nM final; read-out: Jurkat hPD1-PDL1 IC50.
T1 construct: expressed in transfected cells; host or cells: Jurkat
T1 sequence (Q15116 25-288): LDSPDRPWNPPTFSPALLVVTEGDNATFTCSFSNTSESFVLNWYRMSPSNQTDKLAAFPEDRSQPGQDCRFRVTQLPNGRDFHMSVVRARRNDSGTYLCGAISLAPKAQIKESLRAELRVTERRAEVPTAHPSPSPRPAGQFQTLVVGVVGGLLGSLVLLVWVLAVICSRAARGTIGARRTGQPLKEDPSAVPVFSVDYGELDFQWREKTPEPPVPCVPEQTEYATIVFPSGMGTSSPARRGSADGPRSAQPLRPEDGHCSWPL
Type: cell-based
Outline: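 Jurkat-hPD-1 cells, DMEM/10% FCS; cpd 2 h 37° C; PE-PD-L1-Ig 20 nM final, 1 h; 4% PFA fix + Hoechst 33342, 3× dPBS wash; high-content imaging read-out.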

In order of rising IC50:
1. CC(C)C[C@H]1NC(=O)[C@H](CCCN)NC(=O)[C@H](C(C)C)NC(=O)[C@H](Cc2ccc(-c3ccccc3)cc2)NC(=O)[C@H](C(C)C)NC(=O)[C@H](Cc2c[nH]c3ccccc23)NC(=O)[C@H](CC(=O)O)NC(=O)[C@H](Cc2ccc(OCC(=O)O)cc2)NC(=O)[C@H](C(C)O)NC(=O)CSC[C@@H](C(=O)N[C@@H](CCN)C(=O)NCCOCCOCC(=O)N[C@@H](CCC(=O)NCCCCCCCCCCC(=O)O)C(=O)O)NC(=O)[C@H](CCN)NC(=O)[C@H](C(C)O)NC(=O)[C@H](CC2CCCCC2)NC(=O)[C@H](CCN)NC1=O (stereo partly drawn) [Compound 3678] ({CH2CO}-[Thr(3ξ)]Y(Carboxymethyl)DWV[Bip]V[Orn][dL][Dab][Cha][Thr(3ξ)][Dab]C[Dab][AEEA][γGlu][Aun]-OH; thioether N-14)  9.2 nM
2. CC(C)C[C@H]1NC(=O)[C@H](CCCN)NC(=O)[C@H](C(C)C)NC(=O)[C@H](Cc2ccc(-c3ccccc3)cc2)NC(=O)[C@H](C(C)C)NC(=O)[C@H](Cc2c[nH]c3ccccc23)NC(=O)[C@H](CC(=O)O)NC(=O)[C@H](Cc2ccc(OCC(=O)O)cc2)NC(=O)[C@H](CN)NC(=O)CSC[C@@H](C(=O)N[C@@H](CCN)C(=O)NCCOCCOCC(=O)N[C@@H](CCC(=O)NCCCCCCCCCCC(=O)O)C(=O)O)NC(=O)[C@H](CCN)NC(=O)[C@H](C(C)O)NC(=O)[C@H](CC2CCCCC2)NC(=O)[C@H](CCN)NC1=O (stereo partly drawn) [Compound 3679] ({CH2CO}-[Dap]Y(Carboxymethyl)DWV[Bip]V[Orn][dL][Dab][Cha][Thr(3ξ)][Dab]C[Dab][AEEA][γGlu][Aun]-OH; thioether N-14)  9.6 nM
3. CC(C)C[C@H]1NC(=O)[C@H](CCCN)NC(=O)[C@H](C(C)C)NC(=O)[C@H](Cc2ccc(-c3ccccc3)cc2)NC(=O)[C@H](C(C)C)NC(=O)[C@H](Cc2c[nH]c3ccccc23)NC(=O)[C@H](CC(=O)O)NC(=O)[C@H](Cc2ccc(OCC(=O)O)cc2)NC(=O)[C@H](CN)NC(=O)CSC[C@@H](C(=O)N[C@@H](CCN)C(=O)NCCOCCOCC(=O)N[C@@H](CCC(=O)NCCCCCCCCCCC(=O)O)C(=O)O)NC(=O)[C@H](CCCN)NC(=O)[C@H](C(C)O)NC(=O)[C@H](CC2CCCCC2)NC(=O)[C@H](CCN)NC1=O (stereo partly drawn) [Compound 3680] ({CH2CO}-[Dap]Y(Carboxymethyl)DWV[Bip]V[Orn][dL][Dab][Cha][Thr(3ξ)][Orn]C[Dab][AEEA][γGlu][Aun]-OH; thioether N-14)  15.8 nM
4. CC(C)C[C@@H]1NC(=O)[C@H](Cc2c[nH]c3ccccc23)NC(=O)[C@H](CC(=O)O)NC(=O)[C@H](Cc2ccc(OCC(=O)O)cc2)NC(=O)[C@H](CN)NC(=O)CSC[C@@H](C(=O)N[C@@H](CCN)C(=O)NCCCCCCCCCCC(=O)O)NC(=O)[C@H](Cc2cnc[nH]2)NC(=O)[C@H](C(C)C)NC(=O)[C@H](CC2CCCCC2)NC(=O)[C@H](CCN)NC(=O)[C@@H](CC(C)C)NC(=O)[C@H](CCCN)NC(=O)[C@H](C(C)C)NC(=O)[C@H](Cc2ccc(-c3ccccc3)cc2)NC1=O [Compound 3688] ({CH2CO}-[Dap]Y(Carboxymethyl)DWL[Bip]V[Orn][dL][Dab][Cha]VHC[Dab][Aun]-OH; thioether N-14)  17.3 nM
5. CC(C)C[C@@H]1NC(=O)[C@H](Cc2c[nH]c3ccccc23)NC(=O)[C@H](CC(=O)O)NC(=O)[C@H](Cc2ccc(OCC(=O)O)cc2)NC(=O)[C@H](CN)NC(=O)CSC[C@@H](C(=O)N[C@@H](CCN)C(=O)NCCCCCCCCCCC(=O)O)NC(=O)[C@H](CCCN)NC(=O)[C@H](C(C)O)NC(=O)[C@H](CC2CCCCC2)NC(=O)[C@H](CCN)NC(=O)[C@@H](CC(C)C)NC(=O)[C@H](CCCN)NC(=O)[C@H](C(C)C)NC(=O)[C@H](Cc2ccc(-c3ccccc3)cc2)NC1=O (stereo partly drawn) [Compound 3687] ({CH2CO}-[Dap]Y(Carboxymethyl)DWL[Bip]V[Orn][dL][Dab][Cha][Thr(3ξ)][Orn]C[Dab][Aun]-OH; thioether N-14)  19.9 nM
6. CC(C)C[C@@H]1NC(=O)[C@H](Cc2c[nH]c3ccccc23)NC(=O)[C@H](CC(=O)O)NC(=O)[C@H](Cc2ccc(OCC(=O)O)cc2)NC(=O)[C@H](C(C)O)NC(=O)CSC[C@@H](C(=O)N[C@@H](CCN)C(=O)NCCCCCCCCCCC(=O)O)NC(=O)[C@H](CCCN)NC(=O)[C@H](C(C)O)NC(=O)[C@H](CC2CCCCC2)NC(=O)[C@H](CCN)NC(=O)[C@@H](CC(C)C)NC(=O)[C@H](CCCN)NC(=O)[C@H](C(C)C)NC(=O)[C@H](Cc2ccc(-c3ccccc3)cc2)NC1=O (stereo partly drawn) [Compound 3686] ({CH2CO}-[Thr(3ξ)]Y(Carboxymethyl)DWL[Bip]V[Orn][dL][Dab][Cha][Thr(3ξ)][Orn]C[Dab][Aun]-OH; thioether N-14)  27.6 nM
7. CC(C)C[C@@H]1NC(=O)[C@H](Cc2c[nH]c3ccccc23)NC(=O)[C@H](CC(=O)O)NC(=O)[C@H](Cc2ccc(OCC(=O)O)cc2)NC(=O)[C@H](CN)NC(=O)CSC[C@@H](C(=O)N[C@@H](CCN)C(=O)NCCCCCCCCCCC(=O)O)NC(=O)[C@H](Cc2cnc[nH]2)NC(=O)[C@H](C(C)O)NC(=O)[C@H](CC2CCCCC2)NC(=O)[C@H](CCN)NC(=O)[C@@H](CC(C)C)NC(=O)[C@H](CCCN)NC(=O)[C@H](C(C)C)NC(=O)[C@H](Cc2ccc(-c3ccccc3)cc2)NC1=O (stereo partly drawn) [Compound 3689] ({CH2CO}-[Dap]Y(Carboxymethyl)DWL[Bip]V[Orn][dL][Dab][Cha][Thr(3ξ)]HC[Dab][Aun]-OH; thioether N-14)  29.9 nM
8. CC(C)C[C@@H]1NC(=O)[C@H](Cc2c[nH]c3ccccc23)NC(=O)[C@H](CC(=O)O)NC(=O)[C@H](Cc2ccc(OCC(=O)O)cc2)NC(=O)[C@H](CN)NC(=O)CSC[C@@H](C(=O)N[C@@H](CCN)C(=O)NCCCCCCCCCCC(=O)O)NC(=O)[C@H](CO)NC(=O)[C@H](C(C)O)NC(=O)[C@H](CC2CCCCC2)NC(=O)[C@H](CCN)NC(=O)[C@@H](CC(C)C)NC(=O)[C@H](CCCN)NC(=O)[C@H](C(C)C)NC(=O)[C@H](Cc2ccc(-c3ccccc3)cc2)NC1=O (stereo partly drawn) [Compound 3685] ({CH2CO}-[Dap]Y(Carboxymethyl)DWL[Bip]V[Orn][dL][Dab][Cha][Thr(3ξ)]SC[Dab][Aun]-OH; thioether N-14)  30.2 nM
9. CC(C)C[C@@H]1NC(=O)[C@H](Cc2c[nH]c3ccccc23)NC(=O)[C@H](CC(=O)O)NC(=O)[C@H](Cc2ccc(OCC(=O)O)cc2)NC(=O)[C@H](C(C)O)NC(=O)CSC[C@@H](C(=O)N[C@@H](CCN)C(=O)NCCCCCCCCCCC(=O)O)NC(=O)[C@H](Cc2cnc[nH]2)NC(=O)[C@H](C(C)O)NC(=O)[C@H](CC2CCCCC2)NC(=O)[C@H](CCN)NC(=O)[C@@H](CC(C)C)NC(=O)[C@H](CCCN)NC(=O)[C@H](C(C)C)NC(=O)[C@H](Cc2ccc(-c3ccccc3)cc2)NC1=O (stereo partly drawn) [Compound 3690] ({CH2CO}-[Thr(3ξ)]Y(Carboxymethyl)DWL[Bip]V[Orn][dL][Dab][Cha][Thr(3ξ)]HC[Dab][Aun]-OH; thioether N-14)  38.8 nM
10. CC(C)C[C@@H]1NC(=O)[C@H](Cc2c[nH]c3ccccc23)NC(=O)[C@H](CC(=O)O)NC(=O)[C@H](Cc2ccc(OCC(=O)O)cc2)NC(=O)[C@H](CN)NC(=O)CSC[C@@H](C(=O)N[C@@H](CCN)C(=O)NCCCCCCCCCCC(=O)O)NC(=O)[C@H](CCCN)NC(=O)[C@H](C(C)O)NC(=O)[C@H](CC2CCCCC2)NC(=O)[C@H](CCN)NC(=O)[C@@H](CC(C)C)NC(=O)[C@H](CCCN)NC(=O)[C@H](Cc2ccc(O)cc2)NC(=O)[C@H](Cc2ccc(-c3ccccc3)cc2)NC1=O (stereo partly drawn) [Compound 3682] ({CH2CO}-[Dap]Y(Carboxymethyl)DWL[Bip]Y[Orn][dL][Dab][Cha][Thr(3ξ)][Orn]C[Dab][Aun]-OH; thioether N-14)  51.4 nM
11. CC(C)C[C@@H]1NC(=O)[C@H](Cc2c[nH]c3ccccc23)NC(=O)[C@H](CC(=O)O)NC(=O)[C@H](Cc2ccc(OCC(=O)O)cc2)NC(=O)[C@H](CN)NC(=O)CSC[C@@H](C(=O)N[C@@H](CCN)C(=O)NCCCCCCCCCCC(=O)O)NC(=O)[C@H](CCN)NC(=O)[C@H](C(C)O)NC(=O)[C@H](CC2CCCCC2)NC(=O)[C@H](CCN)NC(=O)[C@@H](CC(C)C)NC(=O)[C@H](CCCN)NC(=O)[C@H](Cc2ccc(O)cc2)NC(=O)[C@H](Cc2ccc(-c3ccccc3)cc2)NC1=O (stereo partly drawn) [Compound 3681] ({CH2CO}-[Dap]Y(Carboxymethyl)DWL[Bip]Y[Orn][dL][Dab][Cha][Thr(3ξ)][Dab]C[Dab][Aun]-OH; thioether N-14)  71.7 nM
12. CC(C)C[C@@H]1NC(=O)[C@H](Cc2c[nH]c3ccccc23)NC(=O)[C@H](CC(=O)O)NC(=O)[C@H](Cc2ccc(OCC(=O)O)cc2)NC(=O)[C@H](C(C)O)NC(=O)CSC[C@@H](C(=O)N[C@@H](CCN)C(=O)NCCCCCCCCCCC(=O)O)NC(=O)[C@H](CCCN)NC(=O)[C@H](C(C)O)NC(=O)[C@H](CC2CCCCC2)NC(=O)[C@H](CCN)NC(=O)[C@@H](CC(C)C)NC(=O)[C@H](CCCN)NC(=O)[C@H](Cc2ccc(O)cc2)NC(=O)[C@H](Cc2ccc(-c3ccccc3)cc2)NC1=O (stereo partly drawn) [Compound 3684] ({CH2CO}-[Thr(3ξ)]Y(Carboxymethyl)DWL[Bip]Y[Orn][dL][Dab][Cha][Thr(3ξ)][Orn]C[Dab][Aun]-OH; thioether N-14)  77.1 nM
13. CC(C)C[C@@H]1NC(=O)[C@H](Cc2c[nH]c3ccccc23)NC(=O)[C@H](CC(=O)O)NC(=O)[C@H](Cc2ccc(OCC(=O)O)cc2)NC(=O)[C@H](C(C)O)NC(=O)CSC[C@@H](C(=O)N[C@@H](CCN)C(=O)NCCCCCCCCCCC(=O)O)NC(=O)[C@H](CCN)NC(=O)[C@H](C(C)O)NC(=O)[C@H](CC2CCCCC2)NC(=O)[C@H](CCN)NC(=O)[C@@H](CC(C)C)NC(=O)[C@H](CCCN)NC(=O)[C@H](Cc2ccc(O)cc2)NC(=O)[C@H](Cc2ccc(-c3ccccc3)cc2)NC1=O (stereo partly drawn) [Compound 3683] ({CH2CO}-[Thr(3ξ)]Y(Carboxymethyl)DWL[Bip]Y[Orn][dL][Dab][Cha][Thr(3ξ)][Dab]C[Dab][Aun]-OH; thioether N-14)  118 nM
